One may read the inhibition as how much of the control response was suppressed.

In patent US5631401A, “Inhibitors of protein farnesyltransferase and squalene synthase” (Abbott Laboratories, priority 1995, dated 1997) one finds inhibition data, which are given here for 19 compounds.

Assay [1] addresses T1, Rat brain protein farnesyltransferase (Rattus norvegicus, UniProt Q02293+Q04631).
T1 construct: The enzyme was purified according to Reiss, Y., et al., Cell, 62: 81-88 (1990), utilizing steps one through three; from tissue; host or cells: rat brain
Description: In vitro inhibition of protein farnesyltransferase (biotin-lamin substrate, scintillation proximity assay). The class given is biochemical. The conditions noted are these: for inhibition at 10 µM: compared to uninhibited control; for inhibition at 1 µM: 1 μM (footnote *), read-out: % Inhibition at 1 μM (protein farnesyltransferase, values marked *). Here is the method:
In vitro inhibition of protein farnesyltransferase may be measured by the following procedure. (Procedures for determination of the inhibition of farnesylation of the oncogene protein Ras are described by Goldstein, et al., J. Biol. Chem., 266: 15575-15578 (1991) and by Singh in U.S. Pat. No. 5,245,061 both of which are incorporated herein by reference.)
Rat brain protein farnesyltransferase activity was measured using the biotin-lamin substrate (which is known to undergo farnesylation in a manner analogous to Ras protein) and radioactive farnesyl diphosphate provided by Amersham Life Science in their commercial scintillation proximity assay kit for the determination of farnesyltransferase. The enzyme was purified according to Reiss, Y., et al., Cell, 62: 81-88 (1990), utilizing steps one through three. The specific activity of the enzyme was approximately 10 nmol substrate farnesylated/mg enzyme/hour. […]

For assay [2], the target named is T2, Rat liver microsomal squalene synthase (Rattus norvegicus, UniProt Q02769).
T2 construct: Rat liver microsomes, the source of enzyme, were prepared; from tissue; host or cells: rat liver microsomes
T2 sequence (Q02769 1-416): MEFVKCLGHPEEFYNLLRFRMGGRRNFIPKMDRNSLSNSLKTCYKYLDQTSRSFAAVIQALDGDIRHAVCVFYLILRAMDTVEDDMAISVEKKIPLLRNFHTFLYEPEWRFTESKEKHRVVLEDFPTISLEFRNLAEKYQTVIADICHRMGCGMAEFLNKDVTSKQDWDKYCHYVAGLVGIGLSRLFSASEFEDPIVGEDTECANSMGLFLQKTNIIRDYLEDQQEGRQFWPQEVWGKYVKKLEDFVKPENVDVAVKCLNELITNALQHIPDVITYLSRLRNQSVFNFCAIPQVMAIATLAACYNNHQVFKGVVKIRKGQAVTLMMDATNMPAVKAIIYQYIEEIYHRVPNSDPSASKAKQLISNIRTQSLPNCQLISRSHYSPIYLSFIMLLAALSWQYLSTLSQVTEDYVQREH
The assay can be described thus: In vitro inhibition of squalene synthase (rat liver microsomes, 3H-farnesyl diphosphate). The class given is biochemical. Particulars: for inhibition at 10 µM: 10 μM (footnote *), read-out: % Inhibition at 10 μM (squalene synthase, values marked *); for inhibition at 1 µM: compared to controls with no test compound. Here is the method: In vitro inhibition of squalene synthase may be measured by the following procedure.
Rat liver microsomal squalene synthase activity was measured using radioactive farnesyl diphosphate as a substrate and quantitating squalene synthesis by counting the radioactive squalene formed.
Rat liver microsomes, the source of enzyme, were prepared according to the method of Gillies, P. J., et al., Exp. Molec. Pathol. 44: 329-339 (1986), a modification of the procedure of Erickson, S. K., and Cooper, A. D., Metabolism, 29: 991-996 (1980). Approximately 30 μg of microsomal protein was incubated for 10 minutes at 37° C. with 11 μM of ^3 H-farnesyl diphosphate, 49 mCi/mmol, and test compound in the presence of squalene (2 μL), Mg^++, KF, reduced B-nicotinamide adenine dinucleotide phosphate, dithiothreitol, and K2 PO4, pH 7.35, in a total volume of 200 μL. Oxygen was excluded from the closed incubation tube by degassing with nitrogen. The reaction was terminated by the addition of ethanolic KOH and after degassing with N2, the microsomal membranes were solubilized by heating at 60° C. for 30 minutes. The squalene was extracted into hexane, and the squalene was separated from all other radioactive molecules by passage over an activated alumina column. The solution was collected in scintillation vials, evaporated to dryness, liquid scintillation fluid was added, and the radioactivity was determined in a liquid scintillation counter. […]
(Microsomes from liver hold many membrane-bound enzymes, among them those of drug oxidation.)

As to `CN(Cc1cccc(Oc2ccc(F)cc2)c1)C(=O)[C@H]1[C@H](C(=O)O)[C@H](C(=O)N(C)Cc2cccc(Oc3ccc(F)cc3)c2)[C@H]1C(=O)O` [Example 22, (1α,2β,3β,4α)-1,3-Di[N-methyl-N-(3-(4-fluorophenoxy)benzyl)aminocarbonyl]cyclobutane-2,4-dicarboxylic acid], the inhibition at 10 µM was 78% in assay [1] and 47% in assay [2].
Take `CC(C)N(Cc1ccc(Oc2ccccc2)cc1)C(=O)[C@H]1[C@H](C(=O)O)[C@H](C(=O)N(Cc2ccc(Oc3ccccc3)cc2)C(C)C)[C@H]1C(=O)O` [Example 24]: the inhibition at 10 µM was determined as 31% in assay [1] and 85% in assay [2].
Compound `CC(C)CN(Cc1ccc(Oc2ccccc2)cc1)C(=O)[C@H]1[C@H](C(=O)O)[C@H](C(=O)N(Cc2ccc(Oc3ccccc3)cc2)CC(C)C)[C@H]1C(=O)O` [Example 25, (1α,2β,3β,4α)-1,3-Di(N-isobutyl-N-(4-phenoxybenzyl)aminocarbonyl)cyclobutane-2,4-dicarboxylic acid] came in with an inhibition at 10 µM in assay [1] of 59%. Besides, at 1 µM the inhibition in assay [2] was 24%.
As for `CCCN(Cc1ccc(Cc2ccccc2)cc1)C(=O)[C@H]1[C@H](C(=O)O)[C@H](C(=O)N(CCC)Cc2ccc(Cc3ccccc3)cc2)[C@H]1C(=O)O` [Example 26, (1α,2β,3β,4α)-1,3-Di(N-propyl-N-(4-(benzyl)benzyl)aminocarbonyl)cyclobutane-2,4-dicarboxylic acid], the inhibition at 10 µM in assay [1] is 69%; in assay [2] it was 33%.
In assay [1], `CCCCN(Cc1ccc(Oc2ccccc2)cc1)C(=O)[C@H]1[C@H](C(=O)O)[C@H](C(=O)N(CCCC)Cc2ccc(Oc3ccccc3)cc2)[C@H]1C(=O)O` [Example 27, (1α,2β,3β,4α)-1,3-Di(N-butyl-N-(4-phenoxybenzyl)aminocarbonyl)cyclobutane-2,4-dicarboxylic acid] showed an inhibition at 10 µM of 69%. Further, the inhibition at 1 µM in assay [2] was found to be 35%.
Consider `C#CCN(Cc1ccc(Oc2ccccc2)cc1)C(=O)[C@H]1[C@H](C(=O)O)[C@H](C(=O)N(CC#C)Cc2ccc(Oc3ccccc3)cc2)[C@H]1C(=O)O` [Example 28, (1α,2β,3β,4α)-1,3-Di(N-propargyl-N-(4-phenoxybenzyl)aminocarbonyl)cyclobutane-2,4-dicarboxylic acid], for which the values for the inhibition at 10 µM in assay [1] and in assay [2] were 28% and 49%, respectively.
On to `CCCCCN(Cc1ccc(Oc2ccccc2)cc1)C(=O)[C@H]1[C@H](C(=O)O)[C@H](C(=O)N(CCCCC)Cc2ccc(Oc3ccccc3)cc2)[C@H]1C(=O)O` [Example 29, (1α,2β,3β,4α)-1,3-Di(N-pentyl-N-(4-phenoxybenzyl)aminocarbonyl)cyclobutane-2,4-dicarboxylic acid], for which the results for the inhibition at 10 µM in assay [1] and in assay [2] were 38% and 50%, respectively.
Regarding `C=CCN(Cc1ccc(Oc2ccccc2)cc1)C(=O)[C@H]1[C@H](C(=O)O)[C@H](C(=O)N(CC=C)Cc2ccc(Oc3ccccc3)cc2)[C@H]1C(=O)O` [Example 30, (1α,2β,3β,4α)-1,3-Di(N-allyl-N-(4-phenoxybenzyl)aminocarbonyl)cyclobutane-2,4-dicarboxylic acid], the values for the inhibition at 10 µM in assay [1] and in assay [2] were 37% and 63%, respectively.
In assay [1], `O=C(O)[C@H]1[C@H](C(=O)N(Cc2ccc(Oc3ccccc3)cc2)C2CC2)[C@H](C(=O)O)[C@H]1C(=O)N(Cc1ccc(Oc2ccccc2)cc1)C1CC1` [Example 31, (1α,2β,3β,4α)-1,3-Di[N-cyclopropyl-N-(4-phenoxybenzyl)aminocarbonyl]cyclobutane-2,4-dicarboxylic acid] returned an inhibition at 10 µM of 74%. The compound also registered an inhibition at 1 µM in assay [2] of 23%.
On to `CC(C)=CCC/C(C)=C/CCN(C)C(=O)[C@H]1[C@H](C(=O)O)[C@H](C(=O)N(C)CC/C=C(\C)CCC=C(C)C)[C@H]1C(=O)O` [Example 32, (1α,2β,3β,4α)-1,3-Di[N-methyl-N-(4,8-dimethyl-3,7-nonadienyl)aminocarbonyl]cyclobutane-2,4-dicarboxylic acid], for which the inhibition at 10 µM in assay [1] is 54%; in assay [2], 40%.
For `O=C(O)[C@H]1[C@H](C(=O)N(Cc2ccccc2)Cc2ccccc2)[C@H](C(=O)O)[C@H]1C(=O)N(Cc1ccccc1)Cc1ccccc1` [Example 33, (1α,2β,3β,4α)-1,3-Di[N,N-dibenzylaminocarbonyl]cyclobutane-2,4-dicarboxylic acid] the same measures were 64% and 43%.
For `O=C(O)[C@H]1[C@H](C(=O)N(Cc2ccccc2)Cc2ccc(Cl)cc2)[C@H](C(=O)O)[C@H]1C(=O)N(Cc1ccccc1)Cc1ccc(Cl)cc1` [Example 34, (1α,2β,3β,4α)-1,3-Di[N-benzyl-N-(4-chlorobenzyl)aminocarbonyl]cyclobutane-2,4-dicarboxylic acid] the same measures were 40% and 29%.
In turn, `COC(=O)CN(Cc1ccc(Oc2ccccc2)cc1)C(=O)[C@H]1[C@H](C(=O)O)[C@H](C(=O)N(CC(=O)OC)Cc2ccc(Oc3ccccc3)cc2)[C@H]1C(=O)O` [Example 42, (1α,2β,3β,4α)-1,3-Di[N-methoxycarbonylmethyl-N-(4-phenoxybenzyl)aminocarbonyl]cyclobutane-2,4-dicarboxylic acid] yielded an inhibition at 10 µM in assay [1] of 67%. Moreover, the inhibition at 1 µM in assay [2] turned out to be 36%.
The compound `O=C(O)CCN(Cc1ccc(Oc2ccccc2)cc1)C(=O)C1C(C(=O)O)C(C(=O)N(CCC(=O)O)Cc2ccc(Oc3ccccc3)cc2)C1C(=O)O` (stereo not drawn) [Example 44, (1α,2β,3β,4α)-1,3-Di[N-(2-carboxyethyl)-N-(4-phenoxybenzyl)aminocarbonyl]cyclobutane-2,4-dicarboxylic acid] displayed an inhibition at 10 µM in assay [1] of 81%. The compound also displayed an inhibition at 1 µM in assay [2] of 30%.
For `CCCN(Cc1cccc(Oc2ccccc2)c1)C(=O)C1C(C(=O)O)C(C(=O)N(CCC)Cc2cccc(Oc3ccccc3)c2)C1C(=O)O` (stereo not drawn) [Example 51, (1α,2β,3β,4α)-1,3-Di[N-propyl-N-(3-phenoxybenzyl)aminocarbonyl]cyclobutane-2,4-dicarboxylic acid] the same measures were 68% and 27%.
Compound `CCCN(Cc1ccc(Oc2ccccc2)s1)C(=O)C1C(C(=O)O)C(C(=O)N(CCC)Cc2ccc(Oc3ccccc3)s2)C1C(=O)O` (stereo not drawn) [Example 53, (1α,2β,3β,4α)-1,3-Di[N-propyl-N-(5-phenoxythien-2-ylmethyl)aminocarbonyl]cyclobutane-2,4-dicarboxylic acid] registered an inhibition at 10 µM in assay [1] of 69%. Besides, 1 µM produced 23% inhibition in assay [2].
For `CCCN(Cc1ccc(Oc2ccco2)cc1)C(=O)C1C(C(=O)O)C(C(=O)N(CCC)Cc2ccc(Oc3ccco3)cc2)C1C(=O)O` (centres unmarked) [Example 54] the same measures were 59% and 23%.
On to `CCCN(Cc1ccc(Oc2cccc(C)c2)cc1)C(=O)C1C(C(=O)O)C(C(=O)N(CCC)Cc2ccc(Oc3cccc(C)c3)cc2)C1C(=O)O` (stereo not drawn) [Example 57, (1α,2β,3β,4α)-1,3-Di{N-propyl-N-[4-(3-methylphenoxy)benzyl]aminocarbonyl}cyclobutane-2,4-dicarboxylic acid], for which the inhibition at 1 µM was found to be 26% in assay [1] and 37% in assay [2].
On to `CCCN(Cc1ccc(Oc2ccc3ccccc3c2)cc1)C(=O)C1C(C(=O)O)C(C(=O)N(CCC)Cc2ccc(Oc3ccc4ccccc4c3)cc2)C1C(=O)O` (stereo not drawn) [Example 58, (1α,2β,3β,4α)-1,3-Di{N-propyl-N-[4-(naphth-2-yloxy)benzyl]aminocarbonyl}cyclobutane-2,4-dicarboxylic acid], for which the inhibition at 1 µM in assay [1] came out at 31%; in assay [2] it was 50%.
